# “And” between values parts separate entries of the source, which are not always exact repeats. Equal entries are not always repeated.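 Step 1: Grow cells in 96-well plates. Step 2: Expose to compound for 48 hours at 5 concentrations. Step 3: Interpolate endpoints linearly; if unreached, use highest concentration. GI50 = concentration required for 50% inhibition of growth. TGI marks complete inhibition of growth.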
# Tests used:
# Experiment in all cases: growth of human tumour cells (NCI), 48 h
# [1] = tested on: NCI/ADR-RES ovarian
# [2] = tested on: NCI-H226 lung
# [3] = tested on: TK-10 renal
# [4] = tested on: PC-3 prostate
# [5] = tested on: SK-OV-3 ovarian
# [6] = tested on: UACC-62 melanoma
# [7] = tested on: T-47D breast
# [8] = tested on: NCI-H460 lung
# [9] = tested on: SK-MEL-5 melanoma
# [10] = tested on: HL-60(TB) leukemia
# [11] = tested on: RPMI-8226 leukemia
# [12] = tested on: SNB-19 CNS
# [13] = tested on: A498 renal
# [14] = tested on: CAKI-1 renal
SMILES,TGI [1] [µM],TGI [2] [µM],TGI [3] [µM],TGI [4],TGI [5] [µM],TGI [6],TGI [7] [µM],TGI [8] [µM],TGI [9] [µM],TGI [10],TGI [11],TGI [12] [µM],TGI [13],TGI [14] [µM],GI50 [4],GI50 [9],GI50 [11],GI50 [12]
CC(C)=CCNc1ncnc2c1ncn2CCC(=O)OC(C)(C)C,> 100,> 100,> 100,> 100 µM,> 100,> 100 µM,> 100,> 100,70,> 100 µM,> 100 µM,> 100,> 100 µM,,,,,
COC(=O)c1ccccc1C1CN=NC12Cc1c(C)cc(C)cc1C2=O (configuration not stated),> 100,> 100,> 100,> 100 µM,> 100,> 100 µM,> 100,> 100,> 100,> 100 µM,,> 100,> 100 µM,> 100,,,,
CCOC(=O)Cc1ccc(Nc2nc3cc(C(F)(F)F)ccc3nc2C(=O)OCC)cc1,> 100,91.6,> 100,> 100 µM,> 100,> 100 µM,> 100,> 100,> 100,> 100 µM,,> 100,> 100 µM,> 100,,,,
CC(=O)N1NC(c2ccccc2)=CC(=O)/C1=C/C(=O)c1ccccc1,> 100,> 100,> 100,> 100 µM,> 100,> 100 µM,> 100,> 100,> 100,76.3 µM,> 100 µM,> 100,> 100 µM,> 100,,,,
CC1=C(C)SC(=C2Sc3c(n(C)c(=O)[nH]c3=O)S2)S1,> 100,> 100,> 100,> 100 µM,> 100,> 100 µM,> 100,> 100,> 100,> 100 µM,> 100 µM,> 100,> 100 µM,> 100,,,,
CCOC(=O)CSc1nc(-c2ccc(OC)cc2)c(C#N)c(=O)[nH]1,> 100,> 100,> 100,> 100 µM,> 100,> 100 µM,> 100,> 100,> 100,> 100 µM,> 100 µM,> 100,> 100 µM,> 100,,,,
CCOC(=O)/C(C#N)=C(/NS(=O)(=O)c1cc(C)c(Cl)cc1[S-])[n+]1ccc(N(C)C)cc1,> 100,> 100,> 100,> 100 µM,> 100,> 100 µM,> 100,> 100,> 100,> 100 µM,> 100 µM,> 100,> 100 µM,> 100,,,,
CC1OC(OC2C(OC(=O)[C@]34CCC(C)(C)C[C@H]3C3=CC[C@@H]5[C@@]6(C)CC[C@H](OC7OC(C(=O)O)C(O)C(O)C7O)C(C)(C)[C@@H]6CC[C@@]5(C)[C@]3(C)CC4)OCC(O)C2O)C(O)C(O)C1OC1OCC(O)C(O)C1O (some centres not stated),> 100,> 100,,> 100 µM and 74.7 µM,> 100,86.5 µM and > 100 µM,> 100,> 100,> 100,73.5 µM and 45.8 µM,> 100 µM and 71.5 µM,> 100,33.2 µM and 35.7 µM,> 100,66.9 µM and 25.2 µM,> 100 µM and 28.3 µM,54.5 µM and 25.6 µM,> 100 µM and 47.5 µM
CCOC(=O)Cn1c(=O)c2nc(SC)sc2n(-c2ccc(C)cc2)c1=S,> 100,69.6,> 89.8,> 100 µM,> 100,> 100 µM,> 100,> 100,> 100,> 100 µM,> 100 µM,54.1,> 100 µM,> 100,,,,
O=C(NO)c1cccc(OCc2ccc(Br)cc2)c1,28.4,27.6,> 100,49.9 µM,> 55.7,20.6 µM,23.9,14,> 27.2,21.9 µM,24.3 µM,> 46.4,32.2 µM,15,,,,
Cc1cc(S(=O)(=O)Nc2nc(N)n(-c3cnc4ccccc4n3)n2)c(S)cc1Cl,> 100,> 100,> 100,> 100 µM,> 100,> 100 µM,> 100,> 100,> 100,> 100 µM,,> 100,> 100 µM,> 100,,,,
CCCCCCCC/C=C\CCCCCCCCNc1ccn(C2OC(COP(=O)(O)OC3CC(n4cc(F)c(=O)[nH]c4=O)OC3CO)C(O)C2O)c(=O)n1 (configuration not stated),> 100,> 100,> 100,> 100 µM,> 100,> 95 µM,> 100,> 100,> 100,45.7 µM,> 100 µM,> 100,> 53.2 µM,> 100,,,,
C1COC2SC3=C(SC(=C4SC5=C(SCCS5)S4)S3)SC2O1 (configuration not stated),> 100,> 100,> 100,> 100 µM,> 100,> 100 µM,> 100,> 100,> 100,> 100 µM,,> 100,> 100 µM,> 100,,,,
O=C(O)c1ccc(Nc2ccnc3cc(Cl)ccc23)cc1O,> 100,> 100,> 100,> 100 µM,> 100,> 100 µM,> 100,> 100,> 100,> 100 µM,> 100 µM,> 100,> 100 µM,> 100,,,,
CN(C)c1ccc(N=Nc2cccc3ccoc23)cc1,> 100,> 100,> 100,> 100 µM,> 100,> 100 µM,> 100,> 100,> 100,> 74.7 µM,> 100 µM,> 100,> 100 µM,> 100,,,,
O=S(=O)(O)c1cc(S(=O)(=O)O)c2c(N=Nc3cccc4ccccc34)c(O)ccc2c1,> 100,> 100,> 100,> 100 µM,> 100,> 100 µM,> 100,> 100,> 100,> 100 µM,> 100 µM,> 100,> 100 µM,> 100,,,,

SMILES,TGI [1] [µM],TGI [2] [µM],TGI [3] [µM],TGI [4],TGI [5] [µM],TGI [6],TGI [7] [µM],TGI [8] [µM],TGI [9] [µM],TGI [10],TGI [11],TGI [12] [µM],TGI [13],TGI [14] [µM],GI50 [4],GI50 [9],GI50 [11],GI50 [12]
C[C@]12CC[C@@H]3c4ccc(OC(=O)c5ccccc5)cc4CC[C@H]3[C@@H]1CCC2OC(=O)c1cccc2c(=O)c3ccccc3[nH]c12 (some centres not stated),39.9,39.6,39.1,29.8 µM,74.2,31.3 µM,60.2,32.2,57.9,> 100 µM,> 100 µM,80.6,64 µM,58.9,,,,
CCOC(=O)c1ccc2c(c1)nc1n2C(c2c(F)cccc2F)SC1 (configuration not stated),44.9,34.6,> 100,71.2 µM,> 100,> 100 µM,49.9,> 100,26.1,> 100 µM,> 100 µM,83.5,> 100 µM,> 100,,,,
COc1ccccc1C1C2=C(COC2=O)OC(C)(C)Oc2cc3c(cc21)OCO3 (configuration not stated),> 30.8,> 24.8,> 28.8,> 29.7 µM,> 100,> 25.4 µM,> 100,> 40.3,21,7.8 µM,> 60.7 µM,58.2,24.7 µM,> 29.8,,,,
Cc1c(O)c(OC2OC(CO)C(O)C(O)C2O)cc2c1CC[C@@H]1C2(C)C(=O)C[C@]2(C)[C@@H]([C@@](C)(O)C(O)/C=C/C(C)(C)O)[C@H](O)C[C@@]12C (some centres not stated),> 100,> 100,> 100,> 100 µM,> 100,> 100 µM,> 100,> 100,> 100,> 100 µM,,> 100,> 100 µM,> 100,,,,
CC(=O)C1(c2ccccc2)CCN(Cn2sc3nc(C)cc(C)c3c2=O)CC1,> 100,> 100,36.1,> 100 µM,> 100,> 100 µM,> 100,34.1,> 100,52.5 µM,> 100 µM,> 100,> 100 µM,> 100,,,,
CCCCCCCCCCCCCCCCOP(=O)(O)OP(=O)(O)OCC1OC(n2ccc(N)nc2=O)CC1O (configuration not stated),> 100,> 100,> 100,> 100 µM,> 100,> 100 µM,> 100,> 100,> 100,> 100 µM,> 100 µM,> 100,> 100 µM,> 100,,,,
CON(C)C(=O)C(Cc1ccccc1)NC(=O)OC(C)(C)C (configuration not stated),> 100,> 100,> 100,> 100 µM,> 100,> 100 µM,> 100,> 100,> 100,> 100 µM,> 100 µM,> 100,> 100 µM,,,,,
[N-]=[N+]=NC1(N=[N+]=[N-])C(=O)NN=C(c2ccccc2)C1=O (configuration not stated),> 100,> 100,> 100,> 100 µM,> 100,> 100 µM,94.3,> 100,,> 100 µM,> 100 µM,,> 100 µM,,,,,
CN(C(=O)OC(C)(C)C)[C@H]1CCCC[C@H]1N1CCCC1,> 100,> 100,> 100,> 100 µM,> 100,> 100 µM,> 100,,> 100,> 100 µM,> 100 µM,> 100,> 100 µM,> 100,,,,
Cn1c(=O)n(-c2c3ccccc3c(Cl)c3ccccc23)n(C(C)(C)C)c1=O,> 100,> 100,> 100,> 100 µM,> 100,> 100 µM,> 100,> 100,> 100,> 100 µM,,> 100,> 100 µM,> 100,,,,
O=C(OCc1ccccc1)N1CCNCCNCC1,> 100,> 100,> 100,> 100 µM,,> 100 µM,> 100,> 100,> 100,> 100 µM,> 100 µM,> 100,> 100 µM,> 100,,,,
O=C1CC2[C@@H](N3CCCC3)CCC(N1Cc1ccccc1)C2(O)O (some centres not stated),> 100,> 100,> 100,> 100 µM,> 100,> 100 µM,> 100,> 100,> 100,> 100 µM,,> 100,> 100 µM,> 100,,,,
NC(=O)/N=C(\N)NC(=O)c1ccccc1,> 100,> 100,> 100,> 100 µM,,> 100 µM,> 100,> 100,> 100,> 100 µM,,> 100,> 100 µM,> 100,,,,
CC1(C)C(O)c2ccccc2OC1N1CCN(C2Oc3ccccc3C(O)C2(C)C)CC1 (configuration not stated),> 100,> 100,,> 100 µM,> 100,> 100 µM,> 100,> 100,> 100,> 100 µM,> 100 µM,> 100,> 100 µM,> 100,,,,
c1ccc(COCC23CCN(Cc4ccccc4)C(CC(OCc4ccccc4)C2)S3)cc1 (configuration not stated),> 100,> 100,,> 100 µM,> 100,> 100 µM,> 100,> 100,32.3,45.4 µM,> 100 µM,> 100,> 100 µM,> 100,,,,
NCCCNc1ccc2c(c1)[n+]([O-])c1ccccc1[n+]2[O-],> 100,45.5,> 100,> 100 µM,50.4,49.2 µM,69.6,53.6,31.8,57.6 µM,54.4 µM,> 100,47.8 µM,,,,,

# Reference: PubChem BioAssay (NCI)
